Assay results reported in ChEMBL document CHEMBL3044736, “Synthesis, characterization, solvatochromic properties, and antimicrobial evaluation of 5-acetyl-2-thioxo-dihydro-pyrimidine-4,6-dione-based chalcones” (2013).
Values after ≈ are worked out from the molar mass of the structure shown.

What was measured:
Type in all cases: functional
Staphylococcus aureus [1] = assay: Antimicrobial activity against Staphylococcus aureus MTCC 96 assessed as diameter of growth inhibition zone at 25 ug/ml after 18-24 hr by agar cup diffusion method; settings: read-out: DIZ
Penicillium [2] = assay: Antimicrobial activity against Penicillium wild strain by agar cup diffusion method
Aspergillus clavatus [3] = assay: Antimicrobial activity against Aspergillus clavatus MTCC 1323 assessed as diameter of growth inhibition zone at 50 ug/ml after 48-96 hr by agar cup diffusion method; settings: read-out: DIZ
Klebsiella pneumoniae [4] = assay: Antimicrobial activity against Klebsiella pneumoniae MTCC 109 assessed as diameter of growth inhibition zone at 250 ug/ml after 18-24 hr by agar cup diffusion method; settings: read-out: DIZ
Candida albicans [5] = assay: Antimicrobial activity against Candida albicans MTCC 227 assessed as diameter of growth inhibition zone at 100 ug/ml after 48-96 hr by agar cup diffusion method; settings: read-out: DIZ
Streptococcus pyogenes [6] = assay: Antimicrobial activity against Streptococcus pyogenes MTCC 442 assessed as diameter of growth inhibition zone at 25 ug/ml after 18-24 hr by agar cup diffusion method; settings: read-out: DIZ
Klebsiella pneumoniae [7] = assay: Antimicrobial activity against Klebsiella pneumoniae MTCC 109 assessed as diameter of growth inhibition zone at 25 ug/ml after 18-24 hr by agar cup diffusion method; settings: read-out: DIZ
Pseudomonas aeruginosa [8] = assay: Antimicrobial activity against Pseudomonas aeruginosa MTCC 1688 assessed as diameter of growth inhibition zone at 100 ug/ml after 18-24 hr by agar cup diffusion method; settings: read-out: DIZ
Candida albicans [9] = assay: Antimicrobial activity against Candida albicans MTCC 227 by agar cup diffusion method
Staphylococcus aureus [10] = assay: Antimicrobial activity against Staphylococcus aureus MTCC 96 assessed as diameter of growth inhibition zone at 50 ug/ml after 18-24 hr by agar cup diffusion method; settings: read-out: DIZ
Escherichia coli [11] = assay: Antimicrobial activity against Escherichia coli MTCC 443 assessed as diameter of growth inhibition zone at 50 ug/ml after 18-24 hr by agar cup diffusion method; settings: read-out: DIZ
Klebsiella pneumoniae [12] = assay: Antimicrobial activity against Klebsiella pneumoniae MTCC 109 assessed as diameter of growth inhibition zone at 100 ug/ml after 18-24 hr by agar cup diffusion method; settings: read-out: DIZ
Klebsiella pneumoniae [13] = assay: Antimicrobial activity against Klebsiella pneumoniae MTCC 109 by agar cup diffusion method
Candida albicans [14] = assay: Antimicrobial activity against Candida albicans MTCC 227 assessed as diameter of growth inhibition zone at 25 ug/ml after 48-96 hr by agar cup diffusion method; settings: read-out: DIZ
Trichophyton rubrum [15] = assay: Antimicrobial activity against Trichophyton rubrum MTCC 296 assessed as diameter of growth inhibition zone at 250 ug/ml after 48-96 hr by agar cup diffusion method; settings: read-out: DIZ
Aspergillus clavatus [16] = assay: Antimicrobial activity against Aspergillus clavatus MTCC 1323 assessed as diameter of growth inhibition zone at 100 ug/ml after 48-96 hr by agar cup diffusion method; settings: read-out: DIZ
Pseudomonas aeruginosa [17] = assay: Antimicrobial activity against Pseudomonas aeruginosa MTCC 1688 assessed as diameter of growth inhibition zone at 250 ug/ml after 18-24 hr by agar cup diffusion method; settings: read-out: DIZ
Staphylococcus aureus [18] = assay: Antimicrobial activity against Staphylococcus aureus MTCC 96 assessed as diameter of growth inhibition zone at 250 ug/ml after 18-24 hr by agar cup diffusion method; settings: read-out: DIZ
Candida albicans [19] = assay: Antimicrobial activity against Candida albicans MTCC 227 assessed as diameter of growth inhibition zone at 50 ug/ml after 48-96 hr by agar cup diffusion method; settings: read-out: DIZ
Escherichia coli [20] = assay: Antimicrobial activity against Escherichia coli MTCC 443 assessed as diameter of growth inhibition zone at 250 ug/ml after 18-24 hr by agar cup diffusion method; settings: read-out: DIZ
Streptococcus pyogenes [21] = assay: Antimicrobial activity against Streptococcus pyogenes MTCC 442 assessed as diameter of growth inhibition zone at 50 ug/ml after 18-24 hr by agar cup diffusion method; settings: read-out: DIZ
Streptococcus pyogenes [22] = assay: Antimicrobial activity against Streptococcus pyogenes MTCC 442 by agar cup diffusion method
Streptococcus pyogenes [23] = assay: Antimicrobial activity against Streptococcus pyogenes MTCC 442 assessed as diameter of growth inhibition zone at 250 ug/ml after 18-24 hr by agar cup diffusion method; settings: read-out: DIZ
Escherichia coli [24] = assay: Antimicrobial activity against Escherichia coli MTCC 443 by agar cup diffusion method
Staphylococcus aureus [25] = assay: Antimicrobial activity against Staphylococcus aureus MTCC 96 by agar cup diffusion method
Penicillium [26] = assay: Antimicrobial activity against Penicillium wild strain assessed as diameter of growth inhibition zone at 250 ug/ml after 48-96 hr by agar cup diffusion method; settings: read-out: DIZ
Trichophyton rubrum [27] = assay: Antimicrobial activity against Trichophyton rubrum MTCC 296 assessed as diameter of growth inhibition zone at 50 ug/ml after 48-96 hr by agar cup diffusion method; settings: read-out: DIZ
Trichophyton rubrum [28] = assay: Antimicrobial activity against Trichophyton rubrum MTCC 296 by agar cup diffusion method
Aspergillus clavatus [29] = assay: Antimicrobial activity against Aspergillus clavatus MTCC 1323 assessed as diameter of growth inhibition zone at 25 ug/ml after 48-96 hr by agar cup diffusion method; settings: read-out: DIZ
Klebsiella pneumoniae [30] = assay: Antimicrobial activity against Klebsiella pneumoniae MTCC 109 assessed as diameter of growth inhibition zone at 50 ug/ml after 18-24 hr by agar cup diffusion method; settings: read-out: DIZ
Pseudomonas aeruginosa [31] = assay: Antimicrobial activity against Pseudomonas aeruginosa MTCC 1688 assessed as diameter of growth inhibition zone at 50 ug/ml after 18-24 hr by agar cup diffusion method; settings: read-out: DIZ
Pseudomonas aeruginosa [32] = assay: Antimicrobial activity against Pseudomonas aeruginosa MTCC 1688 assessed as diameter of growth inhibition zone at 25 ug/ml after 18-24 hr by agar cup diffusion method; settings: read-out: DIZ
Aspergillus clavatus [33] = assay: Antimicrobial activity against Aspergillus clavatus MTCC 1323 by agar cup diffusion method
Staphylococcus aureus [34] = assay: Antimicrobial activity against Staphylococcus aureus MTCC 96 assessed as diameter of growth inhibition zone at 100 ug/ml after 18-24 hr by agar cup diffusion method; settings: read-out: DIZ
Trichophyton rubrum [35] = assay: Antimicrobial activity against Trichophyton rubrum MTCC 296 assessed as diameter of growth inhibition zone at 25 ug/ml after 48-96 hr by agar cup diffusion method; settings: read-out: DIZ
Aspergillus clavatus [36] = assay: Antimicrobial activity against Aspergillus clavatus MTCC 1323 assessed as diameter of growth inhibition zone at 250 ug/ml after 48-96 hr by agar cup diffusion method; settings: read-out: DIZ
Pseudomonas aeruginosa [37] = assay: Antimicrobial activity against Pseudomonas aeruginosa MTCC 1688 by agar cup diffusion method
Trichophyton rubrum [38] = assay: Antimicrobial activity against Trichophyton rubrum MTCC 296 assessed as diameter of growth inhibition zone at 100 ug/ml after 48-96 hr by agar cup diffusion method; settings: read-out: DIZ
Candida albicans [39] = assay: Antimicrobial activity against Candida albicans MTCC 227 assessed as diameter of growth inhibition zone at 250 ug/ml after 48-96 hr by agar cup diffusion method; settings: read-out: DIZ
Penicillium [40] = assay: Antimicrobial activity against Penicillium wild strain assessed as diameter of growth inhibition zone at 50 ug/ml after 48-96 hr by agar cup diffusion method; settings: read-out: DIZ
Escherichia coli [41] = assay: Antimicrobial activity against Escherichia coli MTCC 443 assessed as diameter of growth inhibition zone at 100 ug/ml after 18-24 hr by agar cup diffusion method; settings: read-out: DIZ
Escherichia coli [42] = assay: Antimicrobial activity against Escherichia coli MTCC 443 assessed as diameter of growth inhibition zone at 25 ug/ml after 18-24 hr by agar cup diffusion method; settings: read-out: DIZ
Penicillium [43] = assay: Antimicrobial activity against Penicillium wild strain assessed as diameter of growth inhibition zone at 100 ug/ml after 48-96 hr by agar cup diffusion method; settings: read-out: DIZ
Streptococcus pyogenes [44] = assay: Antimicrobial activity against Streptococcus pyogenes MTCC 442 assessed as diameter of growth inhibition zone at 100 ug/ml after 18-24 hr by agar cup diffusion method; settings: read-out: DIZ
Penicillium [45] = assay: Antimicrobial activity against Penicillium wild strain assessed as diameter of growth inhibition zone at 25 ug/ml after 48-96 hr by agar cup diffusion method; settings: read-out: DIZ

Structure (SMILES): COc1ccc(/C=C/C(=O)C2C(=O)NC(=S)NC2=O)cc1OC
- zone of inhibition at 25 µg/mL (Staphylococcus aureus [1]): 11 mm
- MFC (Penicillium [2]): 1000 µg/mL (≈ 2990 µM)
- MIC (Penicillium [2]): 1000 µg/mL (≈ 2990 µM)
- zone of inhibition at 50 µg/mL (Aspergillus clavatus [3]): 20 mm
- zone of inhibition at 250 µg/mL (Klebsiella pneumoniae [4]): 19 mm
- zone of inhibition at 100 µg/mL (Candida albicans [5]): 25 mm
- zone of inhibition at 25 µg/mL (Streptococcus pyogenes [6]): 12 mm
- zone of inhibition at 25 µg/mL (Klebsiella pneumoniae [7]): 14 mm
- zone of inhibition at 100 µg/mL (Pseudomonas aeruginosa [8]): 18 mm
- MFC (Candida albicans [9]): 1000 µg/mL (≈ 2990 µM)
- MIC (Candida albicans [9]): 500 µg/mL (≈ 1500 µM)
- zone of inhibition at 50 µg/mL (Staphylococcus aureus [10]): 15 mm
- zone of inhibition at 50 µg/mL (Escherichia coli [11]): 16 mm
- zone of inhibition at 100 µg/mL (Klebsiella pneumoniae [12]): 18 mm
- MBC (Klebsiella pneumoniae [13]): 500 µg/mL (≈ 1500 µM)
- MIC (Klebsiella pneumoniae [13]): 250 µg/mL (≈ 748 µM)
- zone of inhibition at 25 µg/mL (Candida albicans [14]): 20 mm
- zone of inhibition at 250 µg/mL (Trichophyton rubrum [15]): 24 mm
- zone of inhibition at 100 µg/mL (Aspergillus clavatus [16]): 21 mm
- zone of inhibition at 250 µg/mL (Pseudomonas aeruginosa [17]): 20 mm
- zone of inhibition at 250 µg/mL (Staphylococcus aureus [18]): 20 mm
- zone of inhibition at 50 µg/mL (Candida albicans [19]): 24 mm
- zone of inhibition at 250 µg/mL (Escherichia coli [20]): 21 mm
- zone of inhibition at 50 µg/mL (Streptococcus pyogenes [21]): 16 mm
- MBC (Streptococcus pyogenes [22]): 100 µg/mL (≈ 299 µM)
- MIC (Streptococcus pyogenes [22]): 62.5 µg/mL (≈ 187 µM)
- zone of inhibition at 250 µg/mL (Streptococcus pyogenes [23]): 21 mm
- MBC (Escherichia coli [24]): 500 µg/mL (≈ 1500 µM)
- MIC (Escherichia coli [24]): 500 µg/mL (≈ 1500 µM)
- MBC (Staphylococcus aureus [25]): 500 µg/mL (≈ 1500 µM)
- MIC (Staphylococcus aureus [25]): 500 µg/mL (≈ 1500 µM)
- zone of inhibition at 250 µg/mL (Penicillium [26]): 24 mm
- zone of inhibition at 50 µg/mL (Trichophyton rubrum [27]): 22 mm
- MFC (Trichophyton rubrum [28]): 500 µg/mL (≈ 1500 µM)
- MIC (Trichophyton rubrum [28]): 500 µg/mL (≈ 1500 µM)
- zone of inhibition at 25 µg/mL (Aspergillus clavatus [29]): 18 mm
- zone of inhibition at 50 µg/mL (Klebsiella pneumoniae [30]): 15 mm
- zone of inhibition at 50 µg/mL (Pseudomonas aeruginosa [31]): 15 mm
- zone of inhibition at 25 µg/mL (Pseudomonas aeruginosa [32]): 11 mm
- MFC (Aspergillus clavatus [33]): 1000 µg/mL (≈ 2990 µM)
- MIC (Aspergillus clavatus [33]): 1000 µg/mL (≈ 2990 µM)
- zone of inhibition at 100 µg/mL (Staphylococcus aureus [34]): 18 mm
- zone of inhibition at 25 µg/mL (Trichophyton rubrum [35]): 21 mm
- zone of inhibition at 250 µg/mL (Aspergillus clavatus [36]): 23 mm
- MBC (Pseudomonas aeruginosa [37]): 200 µg/mL (≈ 598 µM)
- MIC (Pseudomonas aeruginosa [37]): 200 µg/mL (≈ 598 µM)
- zone of inhibition at 100 µg/mL (Trichophyton rubrum [38]): 23 mm
- zone of inhibition at 250 µg/mL (Candida albicans [39]): 25 mm
- zone of inhibition at 50 µg/mL (Penicillium [40]): 20 mm
- zone of inhibition at 100 µg/mL (Escherichia coli [41]): 18 mm
- zone of inhibition at 25 µg/mL (Escherichia coli [42]): 12 mm
- zone of inhibition at 100 µg/mL (Penicillium [43]): 22 mm
- zone of inhibition at 100 µg/mL (Streptococcus pyogenes [44]): 18 mm
- zone of inhibition at 25 µg/mL (Penicillium [45]): 19 mm
